Measurements as given in patent US6737383B1, “Herbicidal oxadiazolidines” (priority 1999, dated 2004).

Tests used:
[1] = test system: bedstraw; test: Test B pre/postemergence bedstraw; type: in vivo, Galium aparine; conditions: Preemergence
Summary of the method: (§1)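 Response is a visual 0-to-10 score relative to untreated plants, where 0 means no effect and 10 means complete control, taken twelve to sixteen days after application. Treatments went onto soil at planting and onto foliage of 1- to 4-leaf plants, using a surfactant-containing non-phytotoxic solvent.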

[2] = test system: surinam grass; test: Test B pre/postemergence surinam grass; type: in vivo, Brachiaria decumbens
Summary of the method: as §1

[3] = test system: cocklebur; test: Test B pre/postemergence cocklebur; type: in vivo, Xanthium strumarium
Summary of the method: as §1

[4] = test system: corn; test: Test B pre/postemergence corn; type: in vivo, Zea mays
Summary of the method: as §1

[5] = test system: giant foxtail; test: Test B pre/postemergence giant foxtail; type: in vivo, Setaria faberii
Summary of the method: as §1

[6] = test system: pigweed; test: Test B pre/postemergence pigweed; type: in vivo, Amaranthus retroflexus
Summary of the method: as §1

[7] = test system: rape; test: Test B pre/postemergence rape; type: in vivo, Brassica napus
Summary of the method: as §1

[8] = test system: soybean; test: Test B pre/postemergence soybean; type: in vivo, Glycine max
Summary of the method: as §1

[9] = test system: sugar beet; test: Test B pre/postemergence sugar beet; type: in vivo, Beta vulgaris
Summary of the method: as §1

[10] = test system: velvetleaf; test: Test B pre/postemergence velvetleaf; type: in vivo, Abutilon theophrasti
Summary of the method: as §1

[11] = test system: wheat; test: Test B pre/postemergence wheat; type: in vivo, Triticum aestivum
Summary of the method: as §1

[12] = test system: wild oat; test: Test B pre/postemergence wild oat; type: in vivo, Avena fatua
Summary of the method: as §1

[13] = test system: purple nutsedge; test: Test B pre/postemergence purple nutsedge; type: in vivo, Cyperus rotundus
Summary of the method: as §1

[14] = test system: rice; test: Test B flood test rice; type: in vivo, Oryza sativa
Summary of the method: (§2)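 Each value is a visual injury score relative to controls, with 10 meaning complete control and 0 no effect. Evaluation took place twelve to sixteen days after the 2-leaf-stage plants were treated and kept in the greenhouse.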

[15] = test system: smallflower flatsedge; test: Test B flood test smallflower flatsedge; type: in vivo, Cyperus difformis
Summary of the method: as §2

[16] = test system: duck salad; test: Test B flood test duck salad; type: in vivo, Heteranthera limosa
Summary of the method: as §2

[17] = Postemergence, Rate 31 g/ha, visual rating, scale 0 to 10 (0 no effect, 10 complete control)
[18] = Postemergence, Rate 125 g/ha, scale 0 to 10, 0 is no effect, 10 is complete control
[19] = Preemergence, Rate 31 g/ha, visual rating, scale 0 to 10 (0 no effect, 10 complete control)
[20] = Preemergence, Rate 62 g/ha, scale of 0 to 10 where 0 is no effect and 10 is complete control
[21] = Preemergence, Rate 125 g/ha, scale 0 to 10, 0 is no effect, 10 is complete control
[22] = Preemergence, Rate 250 g/ha, scale 0 to 10, 0 is no effect, 10 is complete control
[23] = Rate 62 g/ha, Postemergence, scale 0 to 10, 0 no effect, 10 complete control
[24] = Postemergence, Rate 250 g/ha, scale 0 to 10
[25] = Rate 31 g/ha, Pre-emergence section (flood test species), scale 0 to 10
[26] = Rate 62 g/ha, flood test species, Pre-emergence, visual evaluation after twelve to sixteen days
[27] = Rate 125 g/ha, under heading Pre-emergence, flood test species, visual evaluation after twelve to sixteen days
[28] = Rate 250 g/ha, Pre-emergence (flood test species), scale 0 to 10, 0 is no effect, 10 is complete control

CC(C)N(C(=O)n1oc(=O)n(CC[N+](=O)[O-])c1=O)c1ccc(Cl)cc1 [Compound 483]
0: Bedstraw plant response rating ([1]; Rate 31 g/ha, visual rating, scale 0 to 10 (0 no effect, 10 complete control)) | Plant response rating, Bedstraw ([1]; Rate 62 g/ha, scale of 0 to 10 where 0 is no effect and 10 is complete control) | Bedstraw plant response rating ([1]; Rate 125 g/ha, scale 0 to 10, 0 is no effect, 10 is complete control) | Bedstraw plant response rating ([1]; Rate 250 g/ha, scale 0 to 10, 0 is no effect, 10 is complete control) | B. signalgrass plant response rating [2, 17] | B. signalgrass plant response rating [2, 18] | B. signalgrass plant response rating ([2]; Postemergence, Rate 250 g/ha, scale 0 to 10, 0 no effect, 10 complete control) | B. signalgrass plant response rating [2, 19] | Plant response rating, B. signalgrass [2, 20] | B. signalgrass plant response rating [2, 21] | B. signalgrass plant response rating [2, 22] | B. signalgrass plant response rating [2, 23] | Cocklebur plant response rating [3, 17] | Cocklebur plant response rating [3, 18] | Cocklebur plant response rating [3, 24] | Cocklebur plant response rating [3, 19] | Plant response rating, Cocklebur [3, 20] | Cocklebur plant response rating [3, 21] | Cocklebur plant response rating [3, 22] | Cocklebur plant response rating [3, 23] | Corn plant response rating [4, 17] | Corn plant response rating [4, 18] | Corn plant response rating [4, 24] | Corn plant response rating [4, 19] | Plant response rating, Corn [4, 20] | Corn plant response rating [4, 21] | Corn plant response rating [4, 22] | Corn plant response rating [4, 23] | Giant foxtail plant response rating [5, 17] | Giant foxtail plant response rating [5, 18] | Giant foxtail plant response rating [5, 24] | Giant foxtail plant response rating [5, 19] | Plant response rating, Giant foxtail [5, 20] | Giant foxtail plant response rating [5, 21] | Giant foxtail plant response rating [5, 22] | Giant foxtail plant response rating [5, 23] | Redroot pigweed plant response rating [6, 17] | Redroot pigweed plant response rating [6, 18] | Redroot pigweed plant response rating [6, 24] | Plant response rating, Redroot pigweed [6, 20] | Redroot pigweed plant response rating [6, 21] | Redroot pigweed plant response rating [6, 22] | Redroot pigweed plant response rating [6, 23] | Rape plant response rating [7, 17] | Rape plant response rating [7, 18] | Rape plant response rating [7, 24] | Plant response rating, Rape [7, 20] | Rape plant response rating [7, 21] | Rape plant response rating [7, 22] | Rape plant response rating [7, 23] | Soybean plant response rating [8, 17] | Soybean plant response rating [8, 18] | Soybean plant response rating [8, 24] | Plant response rating, Soybean [8, 20] | Soybean plant response rating [8, 21] | Soybean plant response rating [8, 22] | Soybean plant response rating [8, 23] | Sugarbeets plant response rating [9, 17] | Sugarbeets plant response rating [9, 18] | Sugarbeets plant response rating [9, 24] | Plant response rating, Sugarbeets [9, 20] | Sugarbeets plant response rating [9, 21] | Sugarbeets plant response rating [9, 22] | Sugarbeets plant response rating [9, 23] | Velvetleaf plant response rating [10, 17] | Velvetleaf plant response rating [10, 18] | Velvetleaf plant response rating [10, 24] | Plant response rating, Velvetleaf [10, 20] | Velvetleaf plant response rating [10, 21] | Velvetleaf plant response rating [10, 22] | Velvetleaf plant response rating [10, 23] | Wheat plant response rating [11, 17] | Wheat plant response rating [11, 18] | Wheat plant response rating [11, 24] | Plant response rating, Wheat [11, 20] | Wheat plant response rating [11, 21] | Wheat plant response rating [11, 22] | Wheat plant response rating [11, 23] | Wild oats plant response rating [12, 17] | Wild oats plant response rating [12, 18] | Wild oats plant response rating [12, 24] | Plant response rating, Wild oats [12, 20] | Wild oats plant response rating [12, 21] | Wild oats plant response rating [12, 22] | Wild oats plant response rating [12, 23] | Nutsedge plant response rating [13, 17] | Nutsedge plant response rating [13, 18] | Nutsedge plant response rating [13, 24] | Plant response rating, Nutsedge [13, 20] | Nutsedge plant response rating [13, 21] | Nutsedge plant response rating [13, 22] | Nutsedge plant response rating [13, 23] | Rice plant response rating [14, 25] | Plant response rating, Rice (0 to 10 scale, 0 is no effect, 10 is complete control) [14, 26] | Rice plant response rating (0 to 10 scale, 0 is no effect, 10 is complete control) [14, 27] | Rice plant response rating [14, 28] | S. Flatsedge plant response rating [15, 25] | Plant response rating, S. Flatsedge (0 to 10 scale, 0 is no effect, 10 is complete control) [15, 26] | S. Flatsedge plant response rating (0 to 10 scale, 0 is no effect, 10 is complete control) [15, 27] | S. Flatsedge plant response rating [15, 28] | Ducksalad plant response rating [16, 25] | Plant response rating, Ducksalad (0 to 10 scale, 0 is no effect, 10 is complete control) [16, 26] | Ducksalad plant response rating (0 to 10 scale, 0 is no effect, 10 is complete control) [16, 27] | Ducksalad plant response rating [16, 28]
